Test results published in US20230339939A1 (Bayer Aktiengesellschaft, priority 2020, published 2023).

Key:
CSNK1A1 = CSNK1A1 (Homo sapiens (Human), UniProt P48729); test: CSNK1A1 Assay 1 (ADP-Glo, 1 μM ATP, substrate Btn-Ahx-[…]); format: biochemical; conditions: median, comparison compounds of WO 2016/120196 (Table 4), read-out: CSNK1A1 Assay 1 IC50 [mol/l] (median)
Experimental: CSNK1A1-inhibitory activity of compounds of the present invention in presence of 1 μM adenosine-tri-phosphate (ATP) was quantified employing the CSNK1A1 assay as described in the following paragraphs. In essence, the enzyme activity is measured by quantification of the adenosine-di-phosphate (ADP), which is generated as a co-product of the enzyme reaction, via the “ADP-Glo™ Kinase Assay” kit from the company Promega. This detection system works as follows: In a first step the ATP not consumed in the kinase reaction is quantitatively converted to cAMP employing an adenylate cyclase (“ADP-Glo-reagent”), then the adenylate cyclase is stopped and the ADP generated in the kinase reaction converted to ATP which generates in a luciferase-based reaction a glow-luminescence signal (“Kinase Detection Reagent”).
Recombinant fusion protein of N-terminal Glutathion-S-Transferase (GST) and full-length human CSNK1A1, expressed by baculovirus infected insect cells and purified via Glutathion affinity chromatography, was purchased from Life Technologies (product no. PV4174) and used as enzyme. As substrate for the kinase reaction the biotinylated peptide Btn-Ahx-[…] (C-terminus in amide form) was used which can be purchased e.g. from the company Biosyntan (Berlin-Buch, Germany). […]

[1] = molecular target: wild-type Epidermal Growth Factor Receptor (EGFR) (Homo sapiens (Human), UniProt P00533); test: WT-EGFR Kinase Assay (TR-FRET, 2 mM ATP); format: biochemical; conditions: read-out: EGFR Wildtype-2 mM ATP IC50 [mol/l] (median), comparison compounds of WO 2016/120196 (Table 4)
Excerpt: Inhibitory activity of compounds of the present invention against wild-type Epidermal Growth Factor Receptor (EGFR) was quantified employing the TR-FRET based EGFR assay as described in the following paragraphs.
Recombinant fusion protein of N-terminal Glutathion-S-Transferase (GST) and a fragment of human EGFR (amino acids R669 to A1210), expressed in Sf9 insect cells and purified via affinity chromatography using Glutathion Sepharose as described above, was used as kinase. As substrate for the kinase reaction the biotinylated peptide biotin-Ahx-[…] (C-terminus in amide form) was used which can be purchased e.g. form the company Biosynthan GmbH (Berlin-Buch, Germany).
For the assay 50 nl of a 100 fold concentrated solution of the test compound in DMSO was pipetted into either a black low volume 384 well microtiter plate or a black 1536 well microtiter plate (both Greiner Bio-One, Frickenhausen, Germany), 2 μL of a solution of EGFR in aqueous assay buffer [50 mM Hepes pH 7.0, 10 mM MgCl2, 1 mM dithiothreitol, 0.5 mM EGTA, 0.3 mM activated sodium ortho-vanadate, 0.005% (w/v) bovine serum albumin, 0.005% (v/v) Tween-20] were added and the mixture was incubated for 15 min at 22° C. to allow pre-binding of the test compounds to the enzyme before the start of the kinase reaction. […] The concentration of EGFR was adjusted depending of the activity of the enzyme lot and was chosen appropriate to have the assay in the linear range, typical concentration was 7.6 pg/μL. The reaction was stopped by the addition of 3 μL of a solution of HTRF detection reagents (83.3 nM streptavidine-XL665 [Cisbio Bioassays, Codolet, France] and 1.67 nM PT66-Tb-Cryptate, a terbium-cryptate labelled anti-phospho-tyrosine antibody from Cisbio Bioassays [instead of the PT66-Tb-cryptate PT66-Eu-Chelate from Perkin Elmer can also be used]) in an aqueous EDTA-solution (133.3 mM EDTA, 0.2% (w/v) bovine serum albumin in 50 mM HEPES pH 7.5).
The resulting mixture was incubated 1 h at 22° C. to allow the binding of the biotinylated phosphorylated peptide to the streptavidine-XL665 and the PT66-Tb-Cryptate. Subsequently the amount of phosphorylated substrate was evaluated by measurement of the resonance energy transfer from the PT66-Tb-Cryptate to the streptavidine-XL665. Therefore, the fluorescence emissions at 620 nm and 665 nm after excitation at 337 nm were measured in a HTRF reader, e.g. a Pherastar (BMG Labtechnologies, Offenburg, Germany) or a Viewlux (Perkin-Elmer). The ratio of the emissions at 665 nm and at 622 nm was taken as the measure for the amount of phosphorylated substrate.

Sequence of CSNK1A1 (P48729 whole entry): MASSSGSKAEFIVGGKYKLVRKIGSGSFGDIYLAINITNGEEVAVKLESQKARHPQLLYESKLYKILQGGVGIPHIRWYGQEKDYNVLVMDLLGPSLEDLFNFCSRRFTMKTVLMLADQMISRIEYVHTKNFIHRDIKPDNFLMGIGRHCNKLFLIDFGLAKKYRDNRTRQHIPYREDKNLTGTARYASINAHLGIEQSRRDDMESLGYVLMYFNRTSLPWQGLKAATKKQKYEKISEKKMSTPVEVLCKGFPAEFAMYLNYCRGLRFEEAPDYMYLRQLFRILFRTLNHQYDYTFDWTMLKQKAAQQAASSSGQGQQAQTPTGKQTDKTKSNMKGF

2-(4-fluorophenyl)-N-{4-[7-(2-oxopyrrolidin-1-yl)-3-(pyridin-2-yl)-1H-pyrrolo[3,2-b]pyridin-2-yl]pyridin-2-yl}acetamide [Example 40]
IC50 (CSNK1A1): 24.1 nM | IC50 [1]: 85.5 nM
